Measurements taken from patent US12194048B2, “Use of pyrrolopyridine derivatives for preventing or treating inflammatory diseases” (VORONOI CO., LTD., priority 2020, dated 2025).

Tested on: collagen-induced arthritis mouse model
Experiment: Collagen-induced arthritis mouse model
Type: in vivo, male DBA-1 mice
Method: In the present experiment, male DBA-1 mice aged 8 to 10 weeks were used as the animal model. After mixing Bovine Type II Collagen (CII) with the same amount of complete Freud's adjuvant, 100 μL was injected by intradermal injection into the tail of the DBA-1 mouse. After 21 days, the same CII was mixed with the same amount of incomplete Freud's adjuvant (IFA, Chondrex), then 100 μL was injected by intradermal injection into the tail. Observation of symptoms of the mouse model began at this point, and arthritis assessment was carried out every other day. […] In the case of the control group Enbrel (anti-TNF-α), 10 mg/kg was subcutaneously administered once every 2 days, then dexamethasone (0.15 mg/kg), Baricitinib (5 mg/kg), Filgotinib (50 mg/kg), and Tofacitinib (10 mg/kg) were orally administered twice a day; as for arthritis assessment, the scores assessed at the four feet of the mouse were added and divided by 4 to give a mean, based on the mean arthritic index by Rosloniec et al (Reference Literature 1: Brand D D, et al. Nat Protoc. 2007:2(5): 1269-75).
The scores and criteria for the arthritis assessment are as follows. • Score 0: No edema or erythema. • Score 1: Mild edema and erythema limited to the foot or ankle joint • Score 2: Mild edema and erythema from the ankle joint to the tarsals • Score 3: Moderate edema and erythema from the ankle joint to the metatarsals. • Score 4: Severe edema and skin flaring from the ankle to the entire leg, or stiffness in the leg
Upon termination of the experiment, the weight of the two hind legs of each mouse were measured and added, and these measurements were compared.
Vol. 30, No. I, p93-96.; Reference 3: Pine P R, et al. Clin Immunol. 124 (3): 244-57).

[1] = 30 mg/kg orally twice a day, H&E and T-blue, FIGS. 3c to 3e

CCNc1cc(Nc2ccc(C(=O)N3CCC(N4CCOCC4)CC3)cc2OC)nc2[nH]cc(C(F)(F)F)c12 [Compound 1, (4-((4-(ethylamino)-3-(trifluoromethyl)-1H-pyrrolo[2,3-b]pyridine-6-yl)amino)-3-methoxyphenyl)(4-morpholinopiperidine-1-yl)methanone]
reduced: weight of the joint (30 mg/kg orally twice a day for 2 weeks, FIG. 3b) | area of cells where collagen-induced inflammation had occurred (histology) [1] | area of the damaged joint (histology) [1]
